In PubChem BioAssay (NCI):
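Compound exposure: 48 hours, 5 concentrations, 96-well plates. Here, GI50 denotes the concentration required for 50% inhibition of growth. TGI is the concentration that stops growth completely.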

Columns and labels:
Test in all cases: growth of human tumour cells (NCI), 48 h
[1] = test system: ACHN renal
[2] = test system: DU-145 prostate
[3] = test system: HS 578T breast
[4] = test system: BT-549 breast
[5] = test system: A498 renal
[6] = test system: NCI-H23 lung
[7] = test system: UACC-62 melanoma
[8] = test system: SF-295 CNS
[9] = test system: SF-268 CNS
[10] = test system: MDA-MB-435
[11] = test system: T-47D breast
[12] = test system: SF-539 CNS
[13] = test system: TK-10 renal
[14] = test system: HL-60(TB) leukemia
[15] = test system: SNB-75 CNS
[16] = test system: LOX IMVI melanoma
[17] = test system: HOP-92 NSCLC
[18] = test system: MALME-3M melanoma
[19] = test system: SK-MEL-2 melanoma
[20] = test system: 786-0 renal
[21] = test system: M14 melanoma
[22] = test system: HCC-2998 colon
[23] = test system: NCI-H522 lung
[24] = test system: MDA-MB-468 breast
[25] = test system: NCI/ADR-RES ovarian
[26] = test system: NCI-H226 lung
[27] = test system: NCI-H460 lung
[28] = test system: SNB-19 CNS
[29] = test system: OVCAR-8 ovarian

COCCOCCOCCOc1ccc(-n2cc(CCCN(CCNc3ccnc4cc(Cl)ccc34)C(=O)CCC(=O)O[C@@H]3O[C@@H]4OC5(C)CC[C@H]6[C@H](C)CC[C@@H]([C@H]3C)[C@@]46OO5)nn2)cc1
GI50 [1]: 3.97 µM
TGI [1]: > 10.3 µM
GI50 [2]: > 10.3 µM
TGI [2]: > 10.3 µM
GI50 [3]: 2.54 µM
TGI [3]: > 10.3 µM
GI50 [4]: 0.771 µM
TGI [4]: 6.85 µM
GI50 [5]: > 10.3 µM
TGI [5]: > 10.3 µM
GI50 [6]: 1.77 µM
TGI [6]: > 10.3 µM
GI50 [7]: 1.18 µM
TGI [7]: > 10.3 µM
GI50 [8]: 3.63 µM
TGI [8]: > 10.3 µM
GI50 [9]: 7.69 µM
TGI [9]: > 10.3 µM
GI50 [10]: 1.25 µM
TGI [10]: > 10.3 µM
GI50 [11]: 0.42 µM
TGI [11]: > 10.3 µM
GI50 [12]: 4.97 µM
TGI [12]: > 10.3 µM
GI50 [13]: > 10.3 µM
TGI [13]: > 10.3 µM
GI50 [14]: 0.353 µM
TGI [14]: 2.37 µM
GI50 [15]: > 10.3 µM
TGI [15]: > 10.3 µM
GI50 [16]: 0.731 µM
TGI [16]: > 10.3 µM
GI50 [17]: 1.09 µM
TGI [17]: 8.11 µM
GI50 [18]: 1.73 µM
TGI [18]: 4.2 µM
GI50 [19]: 5.76 µM
TGI [19]: > 10.3 µM
GI50 [20]: 5.54 µM
TGI [20]: > 10.3 µM
GI50 [21]: 3.19 µM
TGI [21]: > 10.3 µM
GI50 [22]: 7.16 µM
TGI [22]: > 10.3 µM
GI50 [23]: 0.754 µM
TGI [23]: > 10.3 µM
GI50 [24]: 1.01 µM
TGI [24]: > 10.3 µM
GI50 [25]: 2.45 µM
TGI [25]: > 10.3 µM
GI50 [26]: 3.18 µM
TGI [26]: > 10.3 µM
GI50 [27]: 10.1 µM
TGI [27]: > 10.3 µM
GI50 [28]: > 10.3 µM
TGI [28]: > 10.3 µM
GI50 [29]: 1.83 µM
TGI [29]: > 10.3 µM
